# In patent US20090247570A1, “PHARMACEUTICALS” (Pfizer Inc, priority 2006, published 2009):
# Key:
# [1] = system: HIV-1 (CXCR4 using viral population); assay: Clinical trial: HIV-1 viral load after 24 weeks in treatment experienced patients infected with a CXCR4 using viral population; format: in vivo; conditions: for Mean VL reduction: after 24 weeks, change from baseline; for Treatment difference in VL reduction: 97.5% confidence interval printed in next row
# Description: (§1) (b) were infected with a non R5 tropic (CXCR4 using viral population) as determined by Monogram Bioscience Phenosense™ assay (WO 02/-99383; U.S. Pat. No. 5,837,464), or were of indeterminate tropism phenotype;
# (c) had been on a stable antiviral regimen for at least 4 weeks prior to randomisation:
# (e) (i) had at least three months previous antiretroviral experience with at least one agent from three of the four antiretroviral drug classes: NTRIs, NNRTIs, protease inhibitors and fusion inhibitors (i.e. were triple class experienced); or
# (ii) had documented resistance to members of two of the four antiretroviral drug classes (i.e. were dual class resistant).
# (§2) The eligible patients were randomised into three groups based on the drug regimens they received.
# (§3) Group 3: optimised background therapy (as above) plus placebo.
# These patients were distributed evenly among the 3 patient groups.
# (§4) The mean of these measurements was taken to be the baseline measurement for each patient.
# (§5) After 24 weeks of treatment, the endpoints (as discussed below) were measured.
# (a) For each patient, the change from baseline in HIV-1 viral load (on a log[base10]scale) was measured.
# (b) The percentage of patients with fewer than (i) 400 and (ii) 50 HIV-1 RNA copies\mL.
# CD8 cell count = assay: Clinical trial: change from baseline in CD8 cell count (FACS) after 24 weeks; format: in vivo, human; conditions: for Mean change in CD8 count: from baseline
# Protocol: as §1, §2, §3, §5
# (§6) (d) For each patient, the change from baseline in CD4 and CD8 cell count was measured.
# (§7) Cell count was measured by fluorescence activated cell sorting (FACS), which is a standard technique.
# CD4 cell count = assay: Clinical trial: change from baseline in CD4 cell count (FACS) after 24 weeks; format: in vivo, human; conditions: for Mean change in CD4 count: from baseline
# Description: as §1, §2, §3, §4, §5, §6, §7
# [2] = once daily maraviroc + optimised regimen, 24 weeks
# [3] = twice daily maraviroc + optimised regimen, 24 weeks
# [4] = maraviroc both once and twice daily
# [5] = once daily maraviroc + optimised regimen
# [6] = twice daily maraviroc + optimised regimen
substance,measurement,setting,value
"(N-{(1S)-3-[3-isopropyl-5-methyl-4H-1,2,4-triazole-4-yl]-exo-8-azabicyclo[3.2.1]oct-8-yl}-1-phenylpropyl)-4,4-difluorocyclohexanecarboxamide [maraviroc]",viral load change from baseline,"[1]; maraviroc once daily and twice daily groups, 24 weeks",−1.2 log10
same,Mean VL reduction,[1]; once daily maraviroc 150 mg po (300 mg if OBT without PI or delavirdine) + optimised regimen,−0.91 log10 copies/mL
same,Treatment difference in VL reduction,"[1]; once daily maraviroc + optimised regimen vs placebo + optimised regimen, 24 weeks",+0.06 log10 copies/mL
same,>0.5 log10 VL reduction (percentage of patients),[1]; [2],42.1%
same,>1 log10 VL reduction (percentage of patients),[1]; [2],31.6%
same,VL < 50 counts\mL (percentage of patients),[1]; [2],21.0%^
same,VL < 400 counts/mL (percentage of patients),[1]; [2],24.6%
same,Mean VL reduction,[1]; twice daily maraviroc 150 mg po (300 mg if OBT without PI or delavirdine) + optimised regimen,−1.20 log10 copies/mL
same,Treatment difference in VL reduction,"[1]; twice daily maraviroc + optimised regimen vs placebo + optimised regimen, 24 weeks",−0.23 log10 copies/mL
same,>0.5 log10 VL reduction (percentage of patients),[1]; [3],48.1%
same,>1 log10 VL reduction (percentage of patients),[1]; [3],44.2%
same,VL < 50 counts\mL (percentage of patients),[1]; [3],26.9%
same,VL < 400 counts/mL (percentage of patients),[1]; [3],30.8%
same,increase in CD8 cell count as compared to the placebo,CD8 cell count; [4],clinically meaningful (and statistically significant) increase
same,Mean CD8 cell change,CD8 cell count; maraviroc once daily + OBT,+384.5 cells/μL
same,Mean CD8 cell change,CD8 cell count; maraviroc twice daily + OBT,+338.8 cells/μL
same,Mean change in CD8 count,CD8 cell count; [5],+384.5
same,Mean change in CD8 count,CD8 cell count; [6],+338.8
same,increase in CD4 cell count as compared to the placebo,CD4 cell count; [4],clinically meaningful (and statistically significant) increase
same,mean CD4 change,CD4 cell count; maraviroc once daily + OBT,+59.6 cells/μL
same,mean CD4 change,CD4 cell count; maraviroc twice daily + OBT,+62.2 cells/μL
same,Mean change in CD4 count,CD4 cell count; [5],+59.6
same,Mean change in CD4 count,CD4 cell count; [6],+62.4
